# Laboratory results published in paper PMC4097363, “Trace amines inhibit insect odorant receptor function through antagonism of the co-receptor subunit” (F1000Research, 2014).
# Like-named read-outs stand apart in the source and are kept apart here.
# Key:
# Agam\Orco + Agam\Or65 [1] = assay: Odorant and Orco agonist concentration-response, two-electrode voltage clamp in Xenopus oocytes; assay type: cell-based
# Description: (§1) Follicle cells were removed by treatment with collagenase B (Boehringer Mannheim) for 2 hours at room temperature. Capped cRNA encoding each OR subunit was generated using mMessage mMachine kits (Ambion). For heteromeric ORs, 25 ng of cRNA encoding each OR subunit was injected into Stage V-VI Xenopus oocytes. For expression of Orco homomers, 50 ng of cRNA was injected. Oocytes were incubated at 18°C in Barth's saline (in mM: 88 NaCl, 1 KCl, 2.4 NaHCO 3, 0.3 CaNO 3, 0.41 CaCl 2, 0.82 MgSO 4, 15 HEPES, pH 7.6, and 150µg/ml ceftazidime) for 2–5 days prior to electrophysiological recording.
# (§2) Odorant and Orco ligand induced currents were recorded under two-electrode voltage clamp, using an automated parallel electrophysiology system (OpusExpress 6000A, Molecular Devices). Oocytes were perfused with ND96 (in mM: 96 NaCl, 2 KCl, 1 CaCl 2, 1 MgCl 2, 5 HEPES, pH 7.5). Orco ligands were prepared as 50 or 100 mM stock solutions in DMSO and then diluted into ND96 on the day of the experiment. Odorants were prepared as 100 mM stock solutions in DMSO and then diluted into ND96. Unless otherwise noted, applications were for 60 sec at a flow rate of 1.0 ml/min, with extensive washing in ND96 at 4.6 ml/min between applications. Micropipettes were filled with 3 M KCl and had resistances of 0.2–2.0 MΩ. The holding potential was -70 mV. Current responses, filtered (4-pole, Bessel, low pass) at 20 Hz (-3 db) and sampled at 100 Hz, were captured and stored using OpusXpress 1.1 software (Molecular Devices).
# (§3) To screen for agonist activity, oocytes were exposed to 30 sec applications of candidate compounds with 5 min washes between applications ( Figure 2A). For the concentration-response protocol ( Table 1), applications were for 20 sec at a flow rate of 1.65 ml/min. To measure antagonist activity at Orco ( Figure 2B, 2C, Figure 3, Figure 4A and Figure 5A), oocytes were exposed to two 60 sec applications of the synthetic Orco agonist OLC12 (2-((4-Ethyl-5-(4-pyridinyl)-4H-1,2,4-triazol-3-yl)sulfanyl)-N-(4-isopropylphenyl)acetamide) with 4 min washes between applications. Oocytes were then exposed to a 90 sec application of antagonist candidate, immediately followed by a 60 sec co-application of antagonist candidate and OLC12. The current response in the presence of antagonist candidate was compared to the mean of the preceding two responses to OLC12 alone and is presented as a percentage.
# (§4) Initial analysis of electrophysiological data was done using Clampfit 9.1 software (Molecular Devices). Curve fitting and statistical analyses were done using Prism 5 (Graphpad). Concentration-inhibition data were fit to the equation: I = I max/(1+ (X/IC 50) ^n) where I represents the current response at a given concentration of inhibitor, X; I max is the maximal response in the absence of inhibitor; IC 50 is the concentration of inhibitor present that still allows a half maximal response from odorant; n is the apparent Hill coefficient. Concentration-response data were fit to the equation: I = I max/(1+(EC 50/X) ^n) where I represents the current response at a given concentration of odorant, X; I max is the maximal response; EC 50 is the concentration of agonist yielding a half maximal response; n is the apparent Hill coefficient. Statistical significance (p<0.05) was assessed using a two-tailed unpaired t test, an F test, or a one-way analysis of variance followed by the Dunnett's post-test, as appropriate.
# Agam\Orco + Agam\Or31 = assay: Odorant concentration-response, two-electrode voltage clamp in Xenopus oocytes; assay type: cell-based, Anopheles gambiae
# Description: as §1, §2
# To screen for agonist activity, oocytes were exposed to 30 sec applications of candidate compounds with 5 min washes between applications ( Figure 2A). For the concentration-response protocol ( Table 1), applications were for 20 sec at a flow rate of 1.65 ml/min. […]
# Initial analysis of electrophysiological data was done using Clampfit 9.1 software (Molecular Devices). […] Statistical significance (p<0.05) was assessed using a two-tailed unpaired t test, an F test, or a one-way analysis of variance followed by the Dunnett's post-test, as appropriate.
# Cqui\Orco [2] = biological target: T1, Cqui\Orco (Culex quinquefasciatus, UniProt Q309I4); assay: Antagonism of OLC12 activation of Orco in Xenopus oocytes; assay type: cell-based; conditions: for inhibition at 100 µM: read-out: inhibition of the OLC12 response
# T1 sequence (Q309I4 entry or part of it): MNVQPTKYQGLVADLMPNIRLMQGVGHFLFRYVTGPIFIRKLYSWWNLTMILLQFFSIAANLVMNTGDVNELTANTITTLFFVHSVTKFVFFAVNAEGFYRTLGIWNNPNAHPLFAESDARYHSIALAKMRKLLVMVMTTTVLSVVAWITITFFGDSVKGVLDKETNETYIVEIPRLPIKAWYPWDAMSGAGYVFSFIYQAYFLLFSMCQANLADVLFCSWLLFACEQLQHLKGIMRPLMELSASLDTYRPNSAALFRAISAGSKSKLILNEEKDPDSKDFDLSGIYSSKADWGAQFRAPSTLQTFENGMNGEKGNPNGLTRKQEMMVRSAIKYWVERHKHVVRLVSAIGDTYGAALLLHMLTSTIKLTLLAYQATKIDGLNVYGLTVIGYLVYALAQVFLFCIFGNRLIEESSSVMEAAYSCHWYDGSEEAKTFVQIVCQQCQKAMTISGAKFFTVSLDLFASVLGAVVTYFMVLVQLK
# Description: as §1, §2, §3, §4
# Agam\Orco + Agam\Or65 [3] = biological target: T2, Agam\Orco + Agam\Or65 (Anopheles gambiae, UniProt Q7QCC7); assay: Odorant and Orco agonist concentration-response, two-electrode voltage clamp in Xenopus oocytes; assay type: cell-based
# T2 sequence (Q7QCC7 1-478): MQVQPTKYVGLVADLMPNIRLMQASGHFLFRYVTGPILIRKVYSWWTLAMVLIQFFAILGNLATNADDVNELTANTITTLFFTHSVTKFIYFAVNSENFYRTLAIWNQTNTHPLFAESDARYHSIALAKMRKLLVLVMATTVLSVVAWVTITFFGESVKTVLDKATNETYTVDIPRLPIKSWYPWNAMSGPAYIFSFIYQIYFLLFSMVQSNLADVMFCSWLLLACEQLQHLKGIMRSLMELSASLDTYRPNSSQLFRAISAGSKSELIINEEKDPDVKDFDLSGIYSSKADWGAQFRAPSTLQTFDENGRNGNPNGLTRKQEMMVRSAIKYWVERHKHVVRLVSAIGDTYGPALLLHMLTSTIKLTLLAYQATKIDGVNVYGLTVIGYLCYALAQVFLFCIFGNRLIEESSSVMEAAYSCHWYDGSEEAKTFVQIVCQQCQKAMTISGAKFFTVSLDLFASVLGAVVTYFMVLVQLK
# Description: as §1, §2, §3, §4
# Onub\Orco + Onub\Or6 = Onub\Orco + Onub\Or6 (Ostrinia nubilalis, UniProt D3J5H5); assay: Agonist concentration-response, two-electrode voltage clamp in Xenopus oocytes; assay type: cell-based
# Onub\Orco + Onub\Or6, sequence (D3J5H9 entry or part of it): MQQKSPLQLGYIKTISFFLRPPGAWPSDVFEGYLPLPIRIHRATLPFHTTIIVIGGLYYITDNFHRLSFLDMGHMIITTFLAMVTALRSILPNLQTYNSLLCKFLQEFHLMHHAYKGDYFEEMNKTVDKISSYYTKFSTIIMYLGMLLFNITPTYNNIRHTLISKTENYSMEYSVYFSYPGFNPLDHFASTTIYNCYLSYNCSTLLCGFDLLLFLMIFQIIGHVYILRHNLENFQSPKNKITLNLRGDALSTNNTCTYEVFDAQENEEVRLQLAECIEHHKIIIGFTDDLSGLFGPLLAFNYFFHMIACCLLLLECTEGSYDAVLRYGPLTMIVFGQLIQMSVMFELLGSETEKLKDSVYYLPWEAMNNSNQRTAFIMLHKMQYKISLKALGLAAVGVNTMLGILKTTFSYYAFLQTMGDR
# Onub\Orco + Onub\Or6, sequence (D3J5H5 entry or part of it): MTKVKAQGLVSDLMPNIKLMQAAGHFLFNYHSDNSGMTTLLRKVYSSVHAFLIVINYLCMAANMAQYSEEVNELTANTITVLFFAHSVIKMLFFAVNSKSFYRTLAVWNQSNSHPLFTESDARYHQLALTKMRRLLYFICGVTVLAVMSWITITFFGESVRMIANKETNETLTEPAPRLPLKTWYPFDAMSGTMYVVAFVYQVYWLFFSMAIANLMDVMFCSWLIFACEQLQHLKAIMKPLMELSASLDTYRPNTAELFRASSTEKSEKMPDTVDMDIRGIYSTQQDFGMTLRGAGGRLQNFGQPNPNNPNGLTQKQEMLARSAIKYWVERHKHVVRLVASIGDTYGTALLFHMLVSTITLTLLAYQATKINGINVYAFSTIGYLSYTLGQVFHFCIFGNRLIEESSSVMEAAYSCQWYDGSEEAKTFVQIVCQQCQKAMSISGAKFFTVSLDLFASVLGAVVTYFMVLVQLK
# Description: as §1, §2, §3, §4
# Agam\Orco = biological target: T3, Agam\Orco (Anopheles gambiae, UniProt Q7QCC7); assay: as above; assay type: cell-based
# T3 sequence (Q7QCC7 1-478): T2 sequence (Q7QCC7 1-478)
# Description: as §1, §2, §3, §4
# Cqui\Orco [4] = biological target: T1, Cqui\Orco; assay: as above; assay type: cell-based
# Description: as §1, §2, §3, §4
# Dmel\Orco + Dmel\Or35a = biological target: T4, Dmel\Orco + Dmel\Or35a (Drosophila melanogaster, UniProt Q9VNB5); assay: as above; assay type: cell-based
# T4 sequence (Q9VNB5 1-486): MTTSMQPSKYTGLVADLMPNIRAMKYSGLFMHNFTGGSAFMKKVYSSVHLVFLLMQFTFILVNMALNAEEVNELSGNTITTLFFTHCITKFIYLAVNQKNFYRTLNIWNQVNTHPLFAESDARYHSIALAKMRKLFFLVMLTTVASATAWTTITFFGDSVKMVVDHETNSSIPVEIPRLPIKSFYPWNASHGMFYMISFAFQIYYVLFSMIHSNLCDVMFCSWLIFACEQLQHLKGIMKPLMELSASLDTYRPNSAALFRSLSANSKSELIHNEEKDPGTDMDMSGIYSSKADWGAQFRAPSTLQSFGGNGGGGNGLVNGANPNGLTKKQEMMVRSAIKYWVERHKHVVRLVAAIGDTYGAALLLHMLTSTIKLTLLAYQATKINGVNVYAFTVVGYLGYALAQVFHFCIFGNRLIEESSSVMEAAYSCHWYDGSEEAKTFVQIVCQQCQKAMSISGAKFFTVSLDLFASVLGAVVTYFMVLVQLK
# T4 sequence (Q9V3Q2 1-409 partner): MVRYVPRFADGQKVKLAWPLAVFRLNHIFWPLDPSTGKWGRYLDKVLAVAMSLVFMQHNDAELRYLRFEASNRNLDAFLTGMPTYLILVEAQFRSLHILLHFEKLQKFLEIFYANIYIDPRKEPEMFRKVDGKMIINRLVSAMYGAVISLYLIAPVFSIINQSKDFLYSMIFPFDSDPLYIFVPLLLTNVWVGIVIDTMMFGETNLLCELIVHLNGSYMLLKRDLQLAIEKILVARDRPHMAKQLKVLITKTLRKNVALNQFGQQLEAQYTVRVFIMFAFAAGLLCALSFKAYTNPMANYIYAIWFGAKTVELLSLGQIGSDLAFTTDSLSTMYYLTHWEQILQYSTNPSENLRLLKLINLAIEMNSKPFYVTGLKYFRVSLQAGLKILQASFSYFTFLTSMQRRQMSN
# Description: as §1, §2, §3, §4
# Dmel\Orco = biological target: T5, Dmel\Orco (Drosophila melanogaster, UniProt Q9VNB5); assay: as above; assay type: cell-based
# T5 sequence (Q9VNB5 1-486): T4 sequence (Q9VNB5 1-486)
# Description: as §1, §2, §3, §4
# [5] = normalizing conc. 30µM geranyl acetate
# [6] = Cqui\Orco activated by 30µM OLC12 (~EC5), 100µM of each amine, mean ± SEM, n = 3-10
smiles,measurement,setting,value
"C=CCc1ccc(O)c(OC)c1 [Eugenol, eugenol]",Fit Max,Agam\Orco + Agam\Or65 [1]; normalized to 1µM eugenol,1.0 ± 0.03
same,EC50,Agam\Orco + Agam\Or65 [1]; normalizing conc. 1µM eugenol,0.08 ± 0.01 µM
same,n H (apparent Hill coefficient),Agam\Orco + Agam\Or65 [1]; normalizing conc. 1µM eugenol,0.9 ± 0.1
"CC(=O)OC/C=C(\C)CCC=C(C)C [Geranyl Acetate, geranyl acetate]",Fit Max,Agam\Orco + Agam\Or31; normalized to 30µM geranyl acetate,2.9 ± 0.3
same,EC50,Agam\Orco + Agam\Or31; [5],65 ± 23 µM
same,n H (apparent Hill coefficient),Agam\Orco + Agam\Or31; [5],1.0 ± 0.3
"NCCc1c[nH]cn1 [Histamine, histamine]",inhibition at 100 µM,Cqui\Orco [2],16 ± 8%
"CCn1c(SCC(=O)Nc2ccc(C(C)C)cc2)nnc1-c1ccncc1 [OLC12, 2-((4-Ethyl-5-(4-pyridinyl)-4H-1,2,4-triazol-3-yl)sulfanyl)-N-(4-isopropylphenyl)acetamide]",Fit Max,Agam\Orco + Agam\Or65 [3]; normalized to 30µM OLC12,5.7 ± 0.3
same,EC50,Agam\Orco + Agam\Or65 [3]; normalizing conc. 30µM OLC12,67 ± 6 µM
same,n H (apparent Hill coefficient),Agam\Orco + Agam\Or65 [3]; normalizing conc. 30µM OLC12,2.0 ± 0.3
same,EC50,Onub\Orco + Onub\Or6,100 ± 4 µM
same,Fit Max,"Onub\Orco + Onub\Or6; Onub\Orco + Onub\Or6, normalized to 100µM OLC12",2.0 ± 0.1
same,n H (apparent Hill coefficient),"Onub\Orco + Onub\Or6; Onub\Orco + Onub\Or6, normalizing conc. 100µM OLC12",2.1 ± 0.2
same,Fit Max,Agam\Orco; normalized to 30µM OLC12,47 ± 2
same,n H (apparent Hill coefficient),Agam\Orco; normalizing conc. 30µM OLC12,2.4 ± 0.3
same,EC50,"Agam\Orco; normalizing conc. 30µM OLC12, mean ± SEM",124 ± 9 µM
same,Fit Max,Cqui\Orco [4]; normalized to 30µM OLC12,48 ± 2
same,EC50,Cqui\Orco [4]; normalizing conc. 30µM OLC12,95 ± 6 µM
same,n H (apparent Hill coefficient),Cqui\Orco [4]; normalizing conc. 30µM OLC12,2.5 ± 0.3
same,Fit Max,Dmel\Orco + Dmel\Or35a; normalized to 10µM OLC12,4.7 ± 0.4
same,EC50,Dmel\Orco + Dmel\Or35a; normalizing conc. 10µM OLC12,20 ± 5 µM
same,n H (apparent Hill coefficient),Dmel\Orco + Dmel\Or35a; normalizing conc. 10µM OLC12,1.9 ± 0.8
same,Fit Max,Dmel\Orco; normalized to 10µM OLC12,36 ± 4
same,EC50,Dmel\Orco; normalizing conc. 10µM OLC12,36 ± 4 µM
same,n H (apparent Hill coefficient),Dmel\Orco; normalizing conc. 10µM OLC12,3.9 ± 1.9
"NCC(O)c1ccc(O)cc1 (centres unmarked) [Octopamine, octopamine]",inhibition of the OLC12 response,Cqui\Orco [2]; [6],inactive
NCCc1ccc(O)c(O)c1 [dopamine],inhibition of the OLC12 response,Cqui\Orco [2],inactive
CNC[C@H](O)c1ccc(O)c(O)c1 [epinephrine],inhibition at 100 µM,Cqui\Orco [2],9 ± 3%
CN(C)Cc1c[nH]c2ccccc12 [gramine],inhibition at 100 µM,Cqui\Orco [2]; [6],30 ± 4%
COc1ccc2[nH]cc(CCNC(C)=O)c2c1 [melatonin],inhibition at 100 µM,Cqui\Orco [2]; [6],13 ± 1%
NC[C@H](O)c1ccc(O)c(O)c1 [norepinephrine],inhibition of the OLC12 response,Cqui\Orco [2]; [6],inactive
NCCc1ccccc1 [phenethylamine],IC50,Cqui\Orco [2],117 ± 12 µM
same,less potent than tryptamine (IC50 ratio),Cqui\Orco [2]; Cqui\Orco activated by 30µM OLC12,25 fold
same,inhibition at 100 µM,Cqui\Orco [2]; [6],41 ± 1%
NCCc1c[nH]c2ccc(O)cc12 [serotonin],inhibition at 100 µM,Cqui\Orco [2]; [6],23 ± 3%
